Data published in patent US10793561B2, “1,8-naphthyridinone compounds and uses thereof” (NUVATION BIO INC., priority 2017, dated 2020).

Experiments:
[1] = biological target: T1, adenosine A2A receptor (Homo sapiens (Human), UniProt P29274); experiment: cAMP assay in HEK-293 cells expressing human recombinant adenosine A2A receptor; assay type: cell-based; conditions: for inhibition at 0.1 µM / inhibition at 0.3 µM: HEK293; for inhibition at 0.1 µM: 100 nM compound, read-out: A2a cAMP % inh @ 100 nM; for inhibition at 0.3 µM: 300 nM compound, read-out: A2a cAMP % inh @ 300 nM
T1 sequence (P29274 whole entry): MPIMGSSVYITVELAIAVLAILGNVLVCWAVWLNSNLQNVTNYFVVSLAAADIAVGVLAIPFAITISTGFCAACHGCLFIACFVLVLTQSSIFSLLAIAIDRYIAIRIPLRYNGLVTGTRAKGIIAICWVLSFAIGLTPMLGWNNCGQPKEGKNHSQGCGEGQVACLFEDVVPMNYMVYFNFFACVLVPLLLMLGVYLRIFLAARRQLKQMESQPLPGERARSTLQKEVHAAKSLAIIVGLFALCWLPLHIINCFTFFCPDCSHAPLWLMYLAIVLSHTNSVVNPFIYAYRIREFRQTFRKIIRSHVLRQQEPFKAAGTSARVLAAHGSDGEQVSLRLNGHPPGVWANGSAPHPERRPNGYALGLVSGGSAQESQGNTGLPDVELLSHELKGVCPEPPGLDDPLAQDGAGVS
Experimental: The functional activity of compounds was tested using one of the two assays to detect the present of cAMP. Activation of G-protein coupled receptors (such as A2A) results in activation of adenylcyclase which converts ATP into cAMP which is used as a downstream signaling molecule. Therefore, molecules which act as GPCR (or specifically A2A receptor) antagonists cause a decrease in intracellular cAMP concentration.
Both assays used HEK-293 cells expressing human recombinant adenosine A2A receptor were grown prior to the test in media without antibiotic. Assay 1: The cells were detached by gentle flushing with PBS-EDTA (5 mM EDTA), recovered by centrifugation and suspended in assay buffer (KRH: 5 mM KCl, 1.25 mM MgSO4, 124 mM NaCl, 25 mM HEPES, 13.3 mM Glucose, 1.25 mM KH2PO4, 1.45 mM CaCl2, 0.5 g/L BSA, supplemented with Rolipram).
12 μL of cells were mixed with 6 μL of the test compound at increasing concentrations and then incubated for 10 min. Thereafter 6 μL of the reference agonist was added at a final concentration corresponding to the historical EC80. The plates were then incubated for 30 min at room temperature. After addition of the lysis buffer and 1 hour incubation, cAMP concentrations were estimated, according to the manufacturer specification, with the HTRF® kit.
Assay 2: 100 nL of test articles at 100× of final concentration were transferred to assay plate by Echo. Cells were washed twice with 5 mL of PBS […]. After aspirating the PBS and adding 1.5 mL versine, cells were incubated at 37° C. for 2-5 min. After centrifugation, 4 mL of medium was added and adjusted cell density to 5,000 cells/well with stimulation buffer. 10 μL of cells were aliquoted to the assay plate, centrifuged at 1000 rpm for 1 minute, and incubated for 60 minutes at room temperature. 5 μL 4× Eu-cAMP tracer solution and 5 μL 4× Ulight™-anti-cAMP solution were added to assay plate, followed by centrifugation and 60-minute incubation at room temperature. Plates were read on EnVision.

[2] = biological target: T1, adenosine A2A receptor; experiment: Radioligand binding competition assay, adenosine A2A receptor; conditions: for A2A radioligand binding competition assay % residual binding @ 3000 nM / inhibition at 3 µM: 3000 nM compound; for inhibition at 3 µM: read-out: A2a binding % inh @ 3000 nM; for inhibition at 0.3 µM: read-out: A2a binding % inh @ 300 nM
Experimental: Binding of selected compounds to the adenosine A1, A2A, A2B, and A3 receptors was tested using a binding competition assay.
The general protocol for the radioligand binding competition assay was as follows. Competition binding was performed in duplicate in the wells of a 96 well plate (Master Block, Greiner, 786201) containing binding buffer (optimized for each receptor), membrane extracts (amount of protein/well optimized for each receptor), radiotracer (final concentration optimized for each receptor), and test compound. Nonspecific binding was determined by co-incubation with 200-fold excess of cold competitor. The samples were incubated in a final volume of 0.1 mL at 25° C. for 60 minutes and then filtered over filter plates. Filters were washed six times with 0.5 mL of ice-cold washing buffer (optimized for each receptor) and 50 μL of Microscint 20 (Packard) were added on each filter. The filter plates were sealed, incubated 15 min on an orbital shaker and scintillation counted with a TopCount for 30 sec/filter.
For the adenosine A2A receptor radioligand binding assay, the following modifications were made to the general protocol. GF/C filters (Perkin Elmer, 6005174), presoaked in 0.01% Brij for 2 h at room temperature were used. Filters were washed six times with 0.5 mL of ice-cold washing buffer (50 mM Tris pH 7.4) and 50 μL of Microscint 20 (Packard) was added in each well. The plates were then incubated for 15 min on an orbital shaker and then counted with a TopCount™ for 1 min/well.
Another radioligand binding assay was used to evaluate the binding affinity for the adenosine A2A receptor assay was performed in duplicate in the wells of a 384 plate. Assay buffer contained DPBS 500 mM, MgCl2 0.1 mM, and 1% DMSO. Membrane-bead suspension was prepared by mixing 25.98 μL of human adenosine A2A membrane preparation (Perkin Elmer, RBHA2AM400UA) at 33.4 pg/mL, 28 μL of ADA at 20 pg/mL, and 932 μL of SPA beads at 3.33 mg/mL) and incubated the mixture for 20 min at room temperature. Mixed 20 μL of radiotracer (^3H-SCH 58261) at 15 nM to each well containing test articles at various concentrations and centrifuge the plate at 1000 rpm for 1 minute. Added 30 μL of the membrane-bead suspension to each well. Sealed the plates and incubated for 1 hr at room temperature with vigorous mixing on a plate mixer. Plates were read on Microbeta^2 (Perkin Elmer, 2450-0010).
CHO-K1-A3 cell membranes, 1.5 μg/well; a binding buffer comprising HEPES 25 mM pH 7.4, MgCl2 5 mM, CaCl2 1 mM, 0.5% BSA; a wash buffer comprising HEPES 25 mM pH 7.4, MgCl2 5 mM, CaCl2 1 mM; a Unifilter GF/C—treated for 2 h with 0.5% BS; and 0.4 nM of ^125I-AB-MECA as the tracer. The results of the binding assay are shown in Table B1-1 and are shown as percent residual binding at a given concentration. Percent of residual binding means binding of a compound in the presence of competitor normalized to the amount of binding in the absence of competitor. […] For example, compound 1 strongly bound to A2A (30% residual binding at a concentration of 100 nM), A1 (−3% residual binding at 300 nM) and A2B, (−9% residual binding at 300 nM) but weakly bound to A3 (96% residual binding at 300 nM).

Row | inhibition at 0.1 µM [1] | A2A radioligand binding competition assay % residual binding @ 3000 nM [2] | SMILES | other results
1 | 43% | 57/ND/ND/ND % | O=c1ccc2cc(-c3ccc4[nH]cnc4c3)c(-c3ccccc3)nc2[nH]1 [Compound No. 1.6, 6-(1H-benzo[d]imidazol-5-yl)-7-phenyl-1,8-naphthyridin-2(1H)-one] | –
2 | 83% | 16/ND/ND/ND % | O=c1cc[nH]c2nc(-c3ccccc3)c(-c3ccc4ncsc4c3)cc12 [Compound No. 1.24, 6-(benzo[d]thiazol-6-yl)-7-phenyl-1,8-naphthyridin-4(1H)-one] | –
3 | – | 0/ND/ND/ND % | Cc1ccc(-c2nc3[nH]ccc(=O)c3cc2-c2ccc3ncccc3c2)o1 [Compound No. 1.25, 7-(5-methylfuran-2-yl)-6-(quinolin-6-yl)-1,8-naphthyridin-4(1H)-one] | IC50 ([1]; first cAMP table): 18.8 nM
4 | – | – | O=c1cc[nH]c2nc(-c3ccccc3)c(-c3ccc4[nH]ncc4c3)cc12 [Compound No. 1.102, 6-(3a,7a-dihydro-1H-indazol-5-yl)-7-phenyl-1,8-naphthyridin-4(1H)-one] | IC50 ([1]; second cAMP table): 292 nM; inhibition at 3 µM [2]: 77%
5 | – | – | O=c1cc[nH]c2nc(-c3ccccc3)c(-c3ccc4ncncc4c3)cc12 [Compound No. 1.101] | IC50 ([1]; second cAMP table): 182 nM; inhibition at 3 µM [2]: 72%
6 | 23% | 76/ND/ND/ND % | O=c1cc[nH]c2nc(-c3ccccc3)c(-c3ccc4ccccc4c3)cc12 [Compound No. 1.16, 6-(naphthalen-2-yl)-7-phenyl-1,8-naphthyridin-4(1H)-one] | –
7 | 82% | 19% | O=c1ccc2cc(-c3ccc4ncccc4c3)c(-c3ccccc3)nc2[nH]1 [1.4, 7-phenyl-6-(quinolin-6-yl)-1,8-naphthyridin-2(1H)-one] | A2A radioligand binding competition assay % residual binding @ 100 nM ([2]; 100 nM compound): 71%; A2A radioligand binding competition assay % residual binding @ 300 nM ([2]; 300 nM compound): 79%; A2A radioligand binding competition assay % residual binding @ 1000 nM ([2]; 1000 nM compound): 17%
8 | 0% | 106/ND/ND/ND % | Cn1ccc(=O)c2cc(-c3ccc4ncccc4c3)c(-c3ccccc3)nc21 [Compound No. 1.8, 1-methyl-7-phenyl-6-(quinolin-6-yl)-1,8-naphthyridin-4(1H)-one] | –
9 | 50% | 50/ND/ND/ND % | Cc1cc(-c2cc3c(=O)cc[nH]c3nc2-c2ccccc2)cc(C)n1 [1.3, 6-(2,6-dimethylpyridin-4-yl)-7-phenyl-1,8-naphthyridin-4(1H)-one] | –
10 | 64% | – | COc1cc(-c2cc3c(=O)cc[nH]c3nc2-c2ccccc2)cc2cccnc12 [Compound No. 1.26, 6-(8-methoxyquinolin-6-yl)-7-phenyl-1,8-naphthyridin-4(1H)-one] | –
11 | 46% | – | O=c1cc[nH]c2nc(-c3cccnc3)c(-c3ccc4ncccc4c3)cc12 [Compound No. 1.28, 7-(pyridin-3-yl)-6-(quinolin-6-yl)-1,8-naphthyridin-4(1H)-one] | –
12 | 54% | 45/ND/ND/ND % | O=c1cc[nH]c2nc(-c3ccccc3)c(-c3ccc4nccnc4c3)cc12 [Compound No. 1.15, 7-phenyl-6-(quinoxalin-6-yl)-1,8-naphthyridin-4(1H)-one] | –
13 | – | – | Cc1cc(Cl)cc(-c2cc3ccc(=O)[nH]c3nc2-c2ccccc2)c1 [Compound No. 1.35, 6-(3-chloro-5-methylphenyl)-7-phenyl-1,8-naphthyridin-2(1H)-one] | inhibition at 0.3 µM [1]: 12%; inhibition at 3 µM [2]: 0%
14 | 40% | 60/ND/ND/ND % | O=c1ccc2cc(-c3ccc4nccnc4c3)c(-c3ccccc3)nc2[nH]1 [Compound No. 1.10, 7-phenyl-6-(quinoxalin-6-yl)-1,8-naphthyridin-2(1H)-one] | –
15 | – | – | O=c1ccc2cc(-c3cccc(Cl)c3)c(-c3ccccc3)nc2[nH]1 [Compound No. 1.31, 6-(3-chlorophenyl)-7-phenyl-1,8-naphthyridin-2(1H)-one] | inhibition at 0.3 µM ([2]; 300 nM compound): 0%
16 | 74% | 25/ND/ND/ND % | O=c1ccc2cc(-c3cc(Cl)c4[nH]cnc4c3)c(-c3ccccc3)nc2[nH]1 [Compound No. 1.19, 6-(7-chloro-1H-benzo[d]imidazol-5-yl)-7-phenyl-1,8-naphthyridin-2(1H)-one] | –
17 | 61% | 38/ND/ND/ND % | O=c1cc[nH]c2nc(-c3ccncc3)c(-c3ccc4ncccc4c3)cc12 [Compound No. 1.18, 7-(pyridin-4-yl)-6-(quinolin-6-yl)-1,8-naphthyridin-4(1H)-one] | –
18 | – | – | O=c1ccc2cc(-c3ccncc3)c(-c3ccccc3)nc2[nH]1 [Compound No. 1.34, 7-phenyl-6-(pyridin-4-yl)-1,8-naphthyridin-2(1H)-one] | inhibition at 0.3 µM [1]: 26%; inhibition at 3 µM [2]: 30%
19 | – | – | O=c1ccc2cc(-c3ccc4[nH]c(=O)[nH]c4c3)c(-c3ccccc3)nc2[nH]1 [Compound No. 1.32, 6-(2-oxo-2,3-dihydro-1H-benzo[d]imidazol-5-yl)-7-phenyl-1,8-naphthyridin-2(1H)-one] | inhibition at 0.3 µM ([2]; 300 nM compound): 0%
20 | 88% | – | O=c1cc[nH]c2nc(-c3ccco3)c(-c3ccc4[nH]cnc4c3)cc12 [Compound No. 1.27, 6-(1H-benzo[d]imidazol-5-yl)-7-(furan-2-yl)-1,8-naphthyridin-4(1H)-one] | –
21 | – | – | Cc1ccn(-c2nc3[nH]ccc(=O)c3cc2-c2ccc3ncccc3c2)n1 [Compound No. 1.92, 7-(3-methyl-1H-pyrazol-1-yl)-6-(quinolin-6-yl)-1,8-naphthyridin-4(1H)-one] | IC50 ([1]; second cAMP table): 357 nM
22 | – | – | O=c1cc[nH]c2nc(-c3ccccc3)c(-c3cccc(Cl)c3)cc12 [Compound No. 1.30, 6-(3-chlorophenyl)-7-phenyl-1,8-naphthyridin-4(1H)-one] | inhibition at 0.3 µM ([2]; 300 nM compound): 0%

Row | SMILES | inhibition at 0.1 µM [1] | A2A radioligand binding competition assay % residual binding @ 3000 nM [2] | other results
23 | Cc1ccc(-c2nc3[nH]c(=O)ccc3cc2-c2ccc3ncccc3c2)o1 [Compound No. 1.29, 7-(5-methylfuran-2-yl)-6-(quinolin-6-yl)-1,8-naphthyridin-2(1H)-one] | 77% | – | –
